Results taken from patent US20250115620A1, “BRIDGED TRICYCLIC CARBAMOYLPYRIDONE COMPOUNDS AND USES THEREOF” (Gilead Sciences, Inc., priority 2022, published 2025).
Read-outs that look alike come from different tables or passages of the source.

Legend:
[1] = tested on: HIV-1 (IIIB); test: microbe, parasite or virus in culture; type: cell-based; settings: Human immunodeficiency virus 1, IIIB, MT4, 120 h, read-out: MT4 EC50
[2] = tested on: pLAI reporter virus; test: microbe, parasite or virus in culture; type: cell-based, HIV; settings: Human immunodeficiency virus 1, MT4, 72 h
[3] = in vitro; settings: human; for CC50 at 5 days: uninfected MT-4 cells
[4] = HIV-1 (IIIB) in MT-4 cells, 5 days incubation, Cell Titer Glo

CC1=NO[C@@]2(CC[C@H](C)N3C[C@H]2n2cc(C(=O)NCc4ccc(F)cc4F)c(=O)c(O)c2C3=O)[C@@H]1F (single isomer, unassigned) [Example 27 (peak 2)] gave an EC50 [1, 4] of 0.6 nM, an EC50 ([2]; read-out: RLUC 50% HS EC50) of 160 nM and an EC50 ([2]; read-out: RLUC CCM EC50) of 0.3 nM. For the same molecule, the CC50 at 5 days [3] was 45600 nM.

With C[C@H]1CC[C@]2(CC(=O)N(Cc3ccc(F)cc3)O2)[C@H]2CN1C(=O)c1c(O)c(=O)c(C(=O)NCc3c(F)cc(F)cc3F)cn12 (single isomer, unassigned) [Example 115] the EC50 [1, 4] was 1.2 nM, the EC50 ([2]; read-out: RLUC 50% HS EC50) was 5.1 nM and the EC50 ([2]; read-out: RLUC CCM EC50) was 0.3 nM. It also gave a CC50 at 5 days [3] of at least 50000 nM.

In the case of CC1=NO[C@]2(CC[C@H](C)N3C[C@H]2n2cc(C(=O)NCc4ccc(F)cc4F)c(=O)c(O)c2C3=O)C1 [Example 2, (3′S,5R,7′R)—N-(2,4-difluorobenzyl)-12′-hydroxy-3,3′-dimethyl-1′,11′-dioxo-1′,4′,5′,11′-tetrahydro-3′H,4H,7′H-spiro[isoxazole-5,6′-[2,7]methanopyrido[1,2-a][1,4]diazonine]-10′-carboxamide], the EC50 [1, 4] is reported as 11.2 nM, the EC50 ([2]; read-out: RLUC 50% HS EC50) is reported as 9.2 nM and the EC50 ([2]; read-out: RLUC CCM EC50) is reported as 2.6 nM. The CC50 at 5 days [3] was at least 50000 nM.

With CC1=NO[C@@]2(CC[C@H](C)N3C[C@H]2n2cc(C(=O)NCc4c(F)cc(F)cc4F)c(=O)c(O)c2C3=O)C1 [Example 3, (3′S,5S,7′R)-12′-hydroxy-3,3′-dimethyl-1′,11′-dioxo-N-(2,4,6-trifluorobenzyl)-1′,4′,5′,11′-tetrahydro-3′H,4H,7′H-spiro[isoxazole-5,6′-[2,7]methanopyrido[1,2-a][1,4]diazonine]-10′-carboxamide] the EC50 [1, 4] was 0.9 nM, the EC50 ([2]; read-out: RLUC 50% HS EC50) was 71.2 nM and the EC50 ([2]; read-out: RLUC CCM EC50) was 0.2 nM. For the same molecule, the CC50 at 5 days [3] was 20100 nM.

CC1=NO[C@]2(CC[C@H](C)N3C[C@H]2n2cc(C(=O)NCc4c(F)cc(F)cc4F)c(=O)c(O)c2C3=O)C1 [Example 4, (3′S,5R,7′R)-12′-hydroxy-3,3′-dimethyl-1′,11′-dioxo-N-(2,4,6-trifluorobenzyl)-1′,4′,5′,11′-tetrahydro-3′H,4H,7′H-spiro[isoxazole-5,6′-[2,7]methanopyrido[1,2-a][1,4]diazonine]-10′-carboxamide] showed an EC50 [1, 4] of 5.7 nM, an EC50 ([2]; read-out: RLUC 50% HS EC50) of 4.6 nM and an EC50 ([2]; read-out: RLUC CCM EC50) of 3 nM. It also gave a CC50 at 5 days [3] of at least 50000 nM.

Work on CC1=NO[C@]2(C1)C[C@H](F)[C@H](C)N1C[C@H]2n2cc(C(=O)NCc3ccc(F)cc3F)c(=O)c(O)c2C1=O [Example 5, (3′S,4′S,5R,7′R)—N-(2,4-difluorobenzyl)-4′-fluoro-12′-hydroxy-3,3′-dimethyl-1′,11′-dioxo-1′,4′,5′,11′-tetrahydro-3′H,4H,7′H-spiro[isoxazole-5,6′-[2,7]methanopyrido[1,2-a][1,4]diazonine]-10′-carboxamide] yielded an EC50 [1, 4] of 1.6 nM, an EC50 ([2]; read-out: RLUC 50% HS EC50) of 27.4 nM and an EC50 ([2]; read-out: RLUC CCM EC50) of 0.4 nM. It also gave a CC50 at 5 days [3] of 25800 nM.

Molecule CC1=NO[C@@]2(CC[C@H](C)N3C[C@H]2n2cc(C(=O)NCc4ccc(F)c(Cl)c4F)c(=O)c(O)c2C3=O)C1 [Example 6, (3′S,5S,7′R)—N-(3-chloro-2,4-difluorobenzyl)-12′-hydroxy-3,3′-dimethyl-1′,11′-dioxo-1′,4′,5′,11′-tetrahydro-3′H,4H,7′H-spiro[isoxazole-5,6′-[2,7]methanopyrido[1,2-a][1,4]diazonine]-10′-carboxamide] has an EC50 [1, 4] of 0.5 nM, an EC50 ([2]; read-out: RLUC 50% HS EC50) of 543 nM and an EC50 ([2]; read-out: RLUC CCM EC50) of 0.2 nM. It also gave a CC50 at 5 days [3] of 9280 nM.

In the case of CC(C)C1=NO[C@@]2(CC[C@H](C)N3C[C@H]2n2cc(C(=O)NCc4ccc(F)cc4F)c(=O)c(O)c2C3=O)C1 [Example 7, (3′S,5S,7′R)—N-(2,4-difluorobenzyl)-12′-hydroxy-3-isopropyl-3′-methyl-1′,11′-dioxo-1′,4′,5′,11′-tetrahydro-3′H,4H,7′H-spiro[isoxazole-5,6′-[2,7]methanopyrido[1,2-a][1,4]diazonine]-10′-carboxamide], the EC50 [1, 4] is reported as 1.9 nM, the EC50 ([2]; read-out: RLUC 50% HS EC50) is reported as 1.6 nM and the EC50 ([2]; read-out: RLUC CCM EC50) is reported as 0.5 nM. For the same molecule, the CC50 at 5 days [3] was 38200 nM.

In the case of CCC1=NO[C@@]2(CC[C@H](C)N3C[C@H]2n2cc(C(=O)NCc4ccc(F)cc4F)c(=O)c(O)c2C3=O)C1 [Example 8, (3′S,5S,7′R)—N-(2,4-difluorobenzyl)-3-ethyl-12′-hydroxy-3′-methyl-1′,11′-dioxo-1′,4′,5′,11′-tetrahydro-3′H,4H,7′H-spiro[isoxazole-5,6′-[2,7]methanopyrido[1,2-a][1,4]diazonine]-10′-carboxamide], the EC50 [1, 4] is reported as 0.8 nM, the EC50 ([2]; read-out: RLUC 50% HS EC50) is reported as 75.2 nM and the EC50 ([2]; read-out: RLUC CCM EC50) is reported as 0.2 nM. It also gave a CC50 at 5 days [3] of 14800 nM.

C[C@H]1CC[C@]2(CC(CC(F)(F)F)=NO2)[C@H]2CN1C(=O)c1c(O)c(=O)c(C(=O)NCc3c(F)cc(F)cc3F)cn12 [Example 9] showed an EC50 [1, 4] of 0.8 nM, an EC50 ([2]; read-out: RLUC 50% HS EC50) of 146 nM and an EC50 ([2]; read-out: RLUC CCM EC50) of 0.5 nM. It also gave a CC50 at 5 days [3] of 10200 nM.

For C[C@H]1CC[C@]2(CC(CCCCCl)=NO2)[C@H]2CN1C(=O)c1c(O)c(=O)c(C(=O)NCc3c(F)cc(F)cc3F)cn12 [Example 10, (3′S,5S,7′R)-3-(4-chlorobutyl)-12′-hydroxy-3′-methyl-1′,11′-dioxo-N-(2,4,6-trifluorobenzyl)-1′,4′,5′,11′-tetrahydro-3′H,4H,7′H-spiro[isoxazole-5,6′-[2,7]methanopyrido[1,2-a][1,4]diazonine]-10′-carboxamide], the EC50 [1, 4] was 1.7 nM, the EC50 ([2]; read-out: RLUC 50% HS EC50) was 5.5 nM and the EC50 ([2]; read-out: RLUC CCM EC50) was 1 nM. For the same molecule, the CC50 at 5 days [3] was 5860 nM.

Work on C[C@H]1CC[C@]2(CC(c3ccccc3)=NO2)[C@H]2CN1C(=O)c1c(O)c(=O)c(C(=O)NCc3ccc(F)cc3F)cn12 [Example 11, (3′S,5S,7′R)—N-(2,4-difluorobenzyl)-12′-hydroxy-3′-methyl-1′,11′-dioxo-3-phenyl-1′,4′,5′,11′-tetrahydro-3′H,4H,7′H-spiro[isoxazole-5,6′-[2,7]methanopyrido[1,2-a][1,4]diazonine]-10′-carboxamide] yielded an EC50 [1, 4] of 1.8 nM, an EC50 ([2]; read-out: RLUC 50% HS EC50) of 15.4 nM and an EC50 ([2]; read-out: RLUC CCM EC50) of 1.7 nM. For the same molecule, the CC50 at 5 days [3] was 8730 nM.

Work on C[C@H]1CC[C@]2(CC(Cc3ccccc3)=NO2)[C@H]2CN1C(=O)c1c(O)c(=O)c(C(=O)NCc3ccc(F)cc3F)cn12 [Example 12, (3′S,5S,7′R)-3-benzyl-N-(2,4-difluorobenzyl)-12′-hydroxy-3′-methyl-1′,11′-dioxo-1′,4′,5′,11′-tetrahydro-3′H,4H,7′H-spiro[isoxazole-5,6′-[2,7]methanopyrido[1,2-a][1,4]diazonine]-10′-carboxamide] yielded an EC50 [1] of 1.7 nM, an EC50 ([2]; read-out: RLUC 50% HS EC50) of 35.6 nM and an EC50 ([2]; read-out: RLUC CCM EC50) of 1.1 nM. It also gave a CC50 [3] of 23500 nM.

Molecule C[C@H]1CC[C@]2(CC(c3ccccn3)=NO2)[C@H]2CN1C(=O)c1c(O)c(=O)c(C(=O)NCc3ccc(F)cc3F)cn12 [Example 13, (3′S,5S,7′R)—N-(2,4-difluorobenzyl)-12′-hydroxy-3′-methyl-1′,11′-dioxo-3-(pyridin-2-yl)-1′,4′,5′,11′-tetrahydro-3′H,4H,7′H-spiro[isoxazole-5,6′-[2,7]methanopyrido[1,2-a][1,4]diazonine]-10′-carboxamide] has an EC50 [1, 4] of 4.3 nM, an EC50 ([2]; read-out: RLUC 50% HS EC50) of 2.1 nM and an EC50 ([2]; read-out: RLUC CCM EC50) of 1.5 nM. The CC50 at 5 days [3] was at least 50000 nM.

Work on C[C@H]1CC[C@]2(CC(c3cccnc3)=NO2)[C@H]2CN1C(=O)c1c(O)c(=O)c(C(=O)NCc3ccc(F)cc3F)cn12 [Example 14, (3′S,5S,7′R)—N-(2,4-difluorobenzyl)-12′-hydroxy-3′-methyl-1′,11′-dioxo-3-(pyridin-3-yl)-1′,4′,5′,11′-tetrahydro-3′H,4H,7′H-spiro[isoxazole-5,6′-[2,7]methanopyrido[1,2-a][1,4]diazonine]-10′-carboxamide] yielded an EC50 [1, 4] of 1.6 nM, an EC50 ([2]; read-out: RLUC 50% HS EC50) of 4.1 nM and an EC50 ([2]; read-out: RLUC CCM EC50) of 0.8 nM. It also gave a CC50 at 5 days [3] of 16700 nM.

C[C@H]1CC[C@]2(CC(C3CC3)=NO2)[C@H]2CN1C(=O)c1c(O)c(=O)c(C(=O)NCc3ccc(F)cc3F)cn12 [Example 15, (3′S,5S,7′R)-3-cyclopropyl-N-(2,4-difluorobenzyl)-12′-hydroxy-3′-methyl-1′,11′-dioxo-1′,4′,5′,11′-tetrahydro-3′H,4H,7′H-spiro[isoxazole-5,6′-[2,7]methanopyrido[1,2-a][1,4]diazonine]-10′-carboxamide] showed an EC50 [1, 4] of 2.4 nM, an EC50 ([2]; read-out: RLUC 50% HS EC50) of 3.8 nM and an EC50 ([2]; read-out: RLUC CCM EC50) of 0.8 nM. For the same molecule, the CC50 at 5 days [3] was at least 50000 nM.

With C[C@H]1CC[C@]2(CC(CO)=NO2)[C@H]2CN1C(=O)c1c(O)c(=O)c(C(=O)NCc3ccc(F)cc3F)cn12 [Example 16, (3′S,5S,7′R)—N-(2,4-difluorobenzyl)-12′-hydroxy-3-(hydroxymethyl)-3′-methyl-1′,11′-dioxo-1′,4′,5′,11′-tetrahydro-3′H,4H,7′H-spiro[isoxazole-5,6′-[2,7]methanopyrido[1,2-a][1,4]diazonine]-10′-carboxamide] the EC50 [1, 4] was 2.6 nM, the EC50 ([2]; read-out: RLUC 50% HS EC50) was 52.9 nM and the EC50 ([2]; read-out: RLUC CCM EC50) was 2.8 nM. For the same molecule, the CC50 at 5 days [3] was 49400 nM.

Work on C[C@H]1CC[C@]2(CC(CF)=NO2)[C@H]2CN1C(=O)c1c(O)c(=O)c(C(=O)NCc3ccc(F)cc3F)cn12 [Example 17, (3′S,5S,7′R)—N-(2,4-difluorobenzyl)-3-(fluoromethyl)-12′-hydroxy-3′-methyl-1′,11′-dioxo-1′,4′,5′,11′-tetrahydro-3′H,4H,7′H-spiro[isoxazole-5,6′-[2,7]methanopyrido[1,2-a][1,4]diazonine]-10′-carboxamide] yielded an EC50 [1, 4] of 0.6 nM, an EC50 ([2]; read-out: RLUC 50% HS EC50) of 226 nM and an EC50 ([2]; read-out: RLUC CCM EC50) of 0.2 nM. The CC50 at 5 days [3] was 20500 nM.

With C[C@H]1CC[C@@]2(CC(CF)=NO2)[C@H]2CN1C(=O)c1c(O)c(=O)c(C(=O)NCc3ccc(F)cc3F)cn12 [Example 18, (3′S,5R,7′R)—N-(2,4-difluorobenzyl)-3-(fluoromethyl)-12′-hydroxy-3′-methyl-1′,11′-dioxo-1′,4′,5′,11′-tetrahydro-3′H,4H,7′H-spiro[isoxazole-5,6′-[2,7]methanopyrido[1,2-a][1,4]diazonine]-10′-carboxamide] the EC50 [1, 4] was 4.5 nM, the EC50 ([2]; read-out: RLUC 50% HS EC50) was 2.4 nM and the EC50 ([2]; read-out: RLUC CCM EC50) was 1.6 nM. The CC50 at 5 days [3] was at least 50000 nM.
